Measurements: patent US20260191817A1, “FIBROBLAST MODULATORS IN STROMA-RICH TUMORS” (UNIVERSITEIT GENT, priority 2022, published 2026)

Experiments:
4T1-Luc aggregates = assay: Chick heart invasion (CHI) assay with 4T1-Luc aggregates; assay type: cell-based, mouse; conditions: 1 μM, in duplo
Method: Chick heart invasion assays were performed as described earlier (Bracke et al. 2014). Precultured heart fragments of 9-day-old chicken embryos were confronted with MCF-7/6 aggregates on top of a semi-solid agar at 37° C. overnight, after which the confronting pairs were cultured in suspension for 8 days at 37° C., 10% CO2 in presence or absence of a test compound (in duplo). This procedure can also be performed with aggregates of 4T1-Luc cells, for which the suspension culture of the confronting pairs is performed for 3.5 days. All compounds were evaluated at 1 μM and 100 nM; depending on the outcome higher or lower concentrations were subsequently evaluated. […] Sections of the confrontation cultures were stained with hematoxylin-eosin are blinded and scored by a trained person (Bracke et al., 2014).
In the chick heart invasion assay cancer cells are confronted with a fragment of normal tissue, so as not to neglect the contribution of the host tissue in the micro-ecosystem that governs tumor behavior. […] After eight days for MCF-7/6, or another period depending on the cell type, the interaction between the cancer cells and the PHF is evaluated histologically and classified along a 5-grades subjective scale (Bracke et al. 2014). […] Compounds that inhibit invasion of confronting cancer cells i.e. from III/IV to 0/I/II, are determined as anti-invasive. […]

[1] = tested on: 4T1 primary tumors and target organs for metastasis; assay: 4T1-based intraductal model: histology and immunohistological stainings; assay type: in vivo, BALB/c mice; conditions: for CD163 staining (tumor-associated macrophages) / CD11b staining (amounts of myeloid cells) / FAP-α staining / Ly6G staining: primary tumor tissue
Method: Isolated tissue of primary tumors, axillary lymph nodes, lungs and livers was fixed in buffered 3.5% formaldehyde for 24 h at room temperature (RT) and embedded in paraffin wax. Sections of 5 μm were deparaffinized, hydrated and stained with hematoxylin and eosin (H&E). To allow analysis, sections were dehydrated and mounted.
For Masson's trichrome staining, 3-5 μm thick sections were deparaffinized, hydrated and incubated ON in Bouin's solution to improve staining quality. The following day, slides were washed in distilled H2O (dH2O) and subsequently submerged 3 times in Biebrich scarlet-acid fuchsin solution, washed again in dH2O and incubated for 20 min in phosphomolybdic-phosphotungstic acid solution. Following the incubation in phosphomolybdic-phosphotungstic acid solution, slides were not rinsed, but immediately incubated in aniline blue solution for 8 min. After a final washing step with dH2O, slides were incubated in 1% acetic acid solution for 8 min. Sections were then quickly dehydrated through 94% ethyl alcohol, absolute alcohol to remove Biebrich scarlet-acid fuchsin staining and xylene to clear the slide before mounting with Tissue-Tek glass mounting medium. The staining visualizes collagen in blue, nuclei in dark red, cytoplasm in red/pink. Quantification of positive staining was established using color deconvolution (for Masson's trichrome staining) followed by automatic counting in ImageJ.
For immunohistochemical staining, antigen retrieval was performed on 3-5 μm thick deparaffinized sections with citrate buffer (10 mM tri-sodium citrate (Santa Cruz Biotechnology, Heidelberg, Germany) for α-SMA, CD11 b, Ly6G, and CD163), pH 6 or with Tris-EDTA buffer [pH 9, 10 mM Tris, 1 mM EDTA (Thermo Fisher Scientific) for PDPN and FAP-α) at 95° C. for 30 min using a pressurized Decloaking Chamber NxGen (Biocare Medical, CA, USA). The slides were cooled down to RT for 30 min and subsequently incubated on an orbital shaker at 20 rpm in a closed microscope box with tris-buffered saline (TBS, Biocare Medical)-wetted tissue paper for all blocking, rinsing (between every incubation step with TBS, 3 times for 2 min at RT) and staining steps. To block endogenous peroxidase activity, slides were first treated with 3% H2O2 in methanol for 10 min. To block non-specific binding sites, the slides were subsequently treated with serum-free protein block (Dako, Heverlee, Belgium) for 10 min.
The slides were then stained with primary antibodies diluted in Antibody Diluent (Dako) for 1 h at RT followed by incubation with secondary antibody for 30 min at RT. The used primary antibodies and dilutions were: anti-α-SMA (1:2000, clone EPR5368, Abcam, Cambridge, UK), anti-PDPN (1:100, clone PMab-1, Abcam), anti-FAP-α (1:100, polyclonal, Abcam), anti-CD11b (1:4000, clone EPR1344, Abcam), anti-Ly6G (1:1000, clone 1A8, Biolegend, CA, USA), anti-CD163 (1:500, clone EPR19518, Abcam). The used secondary antibodies were Rat-on-Mouse HRP-Polymer (Biocare Medical) for PDPN and Ly6G, and ready to-use Dako EnVision+ Rabbit for α-SMA, FAP-α, CD11b, and CD163. For visualization of HRP-positive staining, slides were treated with a 3,3′-diaminobenzidine (DAB)-containing buffer (Dako) for 10 min at RT. Counterstaining with hematoxylin was applied for 5 min at RT, followed by dehydration and mounting of the slides with Tissue-Tek glass mounting medium. Quantification of positive staining was established using color deconvolution (for DAB and hematoxylin counterstaining) followed by automatic counting in ImageJ.

[2] = compared to DMSO treatment, data not shown
[3] = primary tumor, compared to DMSO
[4] = primary tumors, compared to DMSO

Row | SMILES | Histological invasion grade (4T1-Luc aggregates) | size of lung and liver metastases (H&E) [1, 2] | Masson's trichrome staining (collagen deposition) ([1]; liver tissue, compared to DMSO) | PDPN staining ([1]; liver tissue, compared to DMSO) | α-SMA staining (CAFs) ([1]; liver tissue, compared to DMSO) | CD163 staining (tumor-associated macrophages) [1] | CD11b staining (amounts of myeloid cells) ([1]; compared to DMSO) | FAP-α staining ([1]; compared to DMSO) | Ly6G staining ([1]; compared to DMSO) | Masson's trichrome staining (collagen deposition) [1, 3] | PDPN staining ([1]; primary tumors, P<0.001) | α-SMA staining (amount of CAFs) [1, 4] | size of axillary lymph node metastases (H&E) [1, 2]
1 | COc1cc(C(=O)/C=C/c2ccc(F)cc2)cc(OC)c1OC [Compound A1, 3-(4-Fluorophenyl)-1-(3,4,5-trimethoxyphenyl)prop2-en-1-one] | I/II-III | Smaller | significant reduction | significantly decreased | significant reduction | significantly decreased | significantly decreased | significantly decreased | reduction | significantly decreased | significantly decreased | significantly decreased | –
2 | COc1cc2oc(-c3ccc(F)cc3)cc(=O)c2c(OC)c1OC [Compound B1, 2-(4-Fluorophenyl)-5,6,7-trimethoxy-4H-chromen-4-one] | II/II | – | significant reduction | significantly decreased | significant reduction | significantly decreased | significantly decreased | significantly decreased | reduction | significantly decreased | significantly decreased | significantly decreased | smaller
